For orientation: IC50 means the point on the concentration scale where inhibition reaches its midpoint.

The subject of test [1] is PC-3 cells. The experiment in a line: WST-1 cell proliferation assay, PC-3. It counts as cell-based, human. Conditions: Homo sapiens, PC-3, 72 h, WST-1, three days of exposure, mean ± SD, n = 3. Put shortly:
(§1)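 Cells (3,200/well) were treated with five compound doses for three days at 37 °C, with 0.25% DMSO as vehicle. WST-1 reagent was added for 3 h and absorbance read at 430 nm. IC50 values were derived by linear proliferative-inhibition fitting over at least five doses.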
Background: Formazan colour is commonly taken as a measure of viable cells.

Test [2] relates to DU145 cells. The experiment in a line: WST-1 cell proliferation assay, DU145. Format: cell-based, human. Conditions: Homo sapiens, DU-145, 72 h; WST-1, three days of exposure, mean ± SD, n = 3. The method in brief:
as §1

The test system of test [3] is LNCaP cells. The experiment in a line: WST-1 cell proliferation assay, LNCaP. It counts as cell-based, human. Particulars: Homo sapiens, LNCaP, 72 h, WST-1, three days of exposure, mean ± SD, n = 3. The method in brief:
as §1

The test system of test [4] is MCF 10A non-neoplastic human mammary epithelial cell line. The experiment in a line: WST-1 cell proliferation assay, MCF 10A non-neoplastic cells. It counts as cell-based. Conditions: Homo sapiens, MCF-10A, 72 h; WST-1, three days of exposure, mean ± SD, n = 3. The procedure:
(§2) Silibinin and five potent derivatives (11, 29, 31, 37, and 40) were selected for further evaluation against the MCF 10A non-neoplastic human mammary epithelial cell line and PWR-1E non-neoplastic human prostate epithelial cells.
(§3) PC-3, DU145, or LNCaP cells were plated in 96-well plates at a density of 3,200 per well in 200 µL of culture medium. The cells were then separately treated with silibinin, or synthesized silibinin derivatives, at five different doses for three days, while equal treatment volumes of DMSO (0.25%) were used as the vehicle control. The cells were cultured in a CO2 incubator at 37 °C for three days. A total of 10 µL of the premixed WST-1 cell proliferation reagent (Clontech) was added to each well. After mixing gently for one min on an orbital shaker, the cells were incubated for an additional 3 h at 37 °C. To ensure a homogeneous distribution of color, it is important to mix gently on an orbital shaker for one min. The absorbance of each well was measured using a microplate reader (Synergy HT, BioTek, Winooski, VT, USA) at a wavelength of 430 nm. […] For calculating the IC50 values, a linear proliferative inhibition was made based on at least five dosages for each compound.

Test [5] deals with PWR-1E non-neoplastic human prostate epithelial cells. The experiment in a line: WST-1 cell proliferation assay, PWR-1E non-neoplastic cells. Format: cell-based. Conditions: Homo sapiens, PWR-1E, 72 h; WST-1, three days of exposure, mean ± SD, n = 3. How it is done:
as §2, §3

Test [6] deals with prostate cancer cell models. Details: method as in PMID 17201169, PMID 26446382, PMID 27557939, PMID 21507570. Conditions: cited from earlier work.

`COc1cc(C2Oc3cc([C@H]4Oc5cc(O)cc(O)c5C(=O)[C@@H]4O)ccc3OC2CO)ccc1O` (stereo partly drawn) [Silibinin, reference compound]: the IC50 in test [1] was 72.7 ± 3.15 µM; in test [2] it was 93.3 ± 13.7 µM; in test [3], 43.7 ± 10.9 µM; in test [4] it was 23.8 ± 0.96 µM; in test [5] it was 20.4 ± 4.09 µM; in test [6], 40 to 106 µM.

Values taken from article PMC6320956, “O-Aminoalkyl-O-Trimethyl-2,3-Dehydrosilybins: Synthesis and In Vitro Effects Towards Prostate Cancer Cells” (Molecules, 2018).
